The data set is described as follows: passive permeability, PAMPA, ADME assay (AID 1508612). To be noted: pH 7.4, 30.0 min, 50.0 µM. (In PAMPA a lipid-coated filter parts donor from acceptor wells.)
As for `COc1cccc(CNc2ccc([S+](=O)([O-])Nc3cc4ccccc4s3)cc2)c1O`, the Papp (usually a coefficient for how fast a substance crosses the barrier) came out at 888 ×10⁻⁶ cm/s.

Take `COc1cc(-c2c(C#N)c(N)nc3c2c(C)nn3-c2ccc(F)cc2)ccc1O`: the Papp was above 1000 ×10⁻⁶ cm/s.

In turn, `COc1ccc(NC2CCCN(C(=O)CCc3ccccc3F)C2)cc1` (stereo unspecified) came in with an apparent permeability (Papp) of 923 ×10⁻⁶ cm/s.

Consider `Cc1ccc(S(=O)(=O)Nc2cnccc2C(=O)Nc2nc(-c3cccc(C)c3)cs2)cc1`, for which the Papp was 729 ×10⁻⁶ cm/s.

Compound `O=C(Nc1ccc([S+](=O)([O-])Nc2nccs2)cc1)c1ccccn1` displayed a Papp of 3 ×10⁻⁶ cm/s.

Regarding `COCCCOc1ccnc(CS(=O)c2nc3ccccc3[nH]2)c1C` (stereo unspecified), the Papp turned out to be 212 ×10⁻⁶ cm/s.

The compound `Cc1ccc(C(=O)N2CCc3sc(C(=O)NC(C)c4ccccc4)cc3C2)cc1` (stereo unspecified) yielded an apparent permeability coefficient (Papp) of 799 ×10⁻⁶ cm/s.

`NC(=O)C1CCN(c2nc(-c3ccccc3)cs2)CC1` had a Papp of 598 ×10⁻⁶ cm/s.

As for `CCCCN(CC)CCCNC(=O)c1ccc2c(c1)N(Cc1ccc(C)cc1)C(=O)c1ccccc1S2`, the Papp came to 827 ×10⁻⁶ cm/s.

As to `Cc1cc(C)c(C(=O)Nc2cccc([S+](=O)([O-])N3CCCCCC3)c2)[nH]1`, the Papp came out at 990 ×10⁻⁶ cm/s.

As for `CCOC(=O)c1ccc(NC(=O)c2sc3nc4c(cc3c2N)N2CCC4CC2)cc1`, the Papp was 928 ×10⁻⁶ cm/s.

Turning to `O=C(Nc1nnc(-c2ccco2)o1)c1ccc(Cl)cc1`, the Papp came to 24.2 ×10⁻⁶ cm/s.

As to `COc1ccc(-c2nc3ccccc3c(=O)n2Cc2ccccc2)cc1COc1ccc(NC(C)=O)cc1`, the Papp is above 1000 ×10⁻⁶ cm/s.

`O=[S+]([O-])(Nc1ccccc1)c1ccc(NCc2ccc(Cl)cc2O)cc1` yielded a Papp of 524 ×10⁻⁶ cm/s.

For `COc1ccc(-n2nc(C3CCN(C(=O)c4ccccc4)CC3)[nH]c2=O)cc1`, the Papp was determined as 331 ×10⁻⁶ cm/s.

For the compound `CCn1cc(C(=O)O)c(=O)c2cnc(N3CCN(C(=S)Nc4ccccc4)CC3)nc21`, the Papp turned out to be 12.1 ×10⁻⁶ cm/s.

For `CCOc1ccc(CCNC(=O)c2cc3sccc3n2C(C)C)cc1OCC`, the Papp came out at 897 ×10⁻⁶ cm/s.

Regarding `CCN1CCN(C(=O)CCCn2nc(C)c3c(C)n(-c4ccc(C)cc4)nc3c2=O)CC1`, the Papp turned out to be 175 ×10⁻⁶ cm/s.

As for `CCOC(=O)c1ccc(-c2ccc3ncnc(NCCc4cnc[nH]4)c3c2)o1`, the Papp was above 1000 ×10⁻⁶ cm/s.

`O=C(NC[C@H]1Cn2c(-c3ccc(Cl)cc3)cnc2CO1)C1CCCC1` displayed a Papp of 108 ×10⁻⁶ cm/s.

`C=Cc1ccc(C(=O)N2CCCC(CCC(=O)N3CCN(c4ccccn4)CC3)C2)cc1` (stereo unspecified) had a Papp of 421 ×10⁻⁶ cm/s.

Consider `Cc1ccc(S(=O)(=O)Nc2cnccc2C(=O)Nc2nc(-c3ccc(Cl)c(Cl)c3)cs2)cc1`, for which the Papp was determined as 51.5 ×10⁻⁶ cm/s.

`O=C(Cc1cccc(OC(F)(F)F)c1)Nc1ccc(CCCCc2nnc(NC(=O)Cc3ccccn3)s2)nn1` returned a Papp of 161 ×10⁻⁶ cm/s.

Take `COc1cc2c(cc1OC)C(C[C@H]1CN(S(=O)(=O)c3cccc(C#N)c3)CC[C@H]1CC(=O)O)=NCC2`: the Papp came out at 3.25 ×10⁻⁶ cm/s.

The compound `O=C([C@@H]1CCCN(c2ccc3[nH]c(C4(n5cc(Cl)cn5)CC4)nc3n2)C1)N1CCCC1` displayed a Papp of 225 ×10⁻⁶ cm/s.

In the case of `CCc1nc2c(sc3nc4c(cc32)COC(C)(C)C4)c(=O)n1Cc1ccco1`, the Papp is above 1000 ×10⁻⁶ cm/s.

The compound `CN1C(=O)CN=C(c2ccccc2Cl)c2cc(Cl)ccc21` gave a Papp above 1000 ×10⁻⁶ cm/s.

The compound `CCOc1ccc(CNc2ccc3c(c2)ncn3C)cc1` gave a Papp above 1000 ×10⁻⁶ cm/s.

For `COc1c(Cl)cc2c([nH]c3cnccc32)c1NC(=O)c1cccnc1C`, the Papp worked out at 440 ×10⁻⁶ cm/s.

As to `O=C1CCCC2=C1C1(CCCC1)N=C(Nc1nc3ccccc3o1)N2`, the Papp is 294 ×10⁻⁶ cm/s.

Take `CCCCCn1c(=O)[nH]c2cc(C(=O)NCCCN3CCC(C)CC3)ccc2c1=O`: the Papp is 91.7 ×10⁻⁶ cm/s.

On to `O=c1cc(CN2CCCN(c3ccc(C(F)(F)F)cn3)CC2)nc2ccccn12`, for which the Papp is above 1000 ×10⁻⁶ cm/s.

On to `Cc1ccc2c(c1)/C(=C\c1cc(Cl)c(O)c(Cl)c1)C(=O)N2`, for which the Papp is 97.5 ×10⁻⁶ cm/s.

Take `c1c[nH]c(C2CCN(c3ncc(-c4ccc5c(c4)OCCCO5)s3)CC2)n1`: the Papp was above 1000 ×10⁻⁶ cm/s.

Turning to `Cc1nnn(C)c1-c1cnc2c3ccc(C(C)(C)O)cc3n([C@H](c3ccccc3)C3CCOCC3)c2c1`, the Papp was 746 ×10⁻⁶ cm/s.

As to `CN(C)CCNC(=O)c1nc(-c2ccccc2)cc2[nH]ccc12`, the Papp is 838 ×10⁻⁶ cm/s.

`Cc1cnc(-c2ccccc2C2CC2)nc1NCc1ccc(-c2cccnc2)cc1` returned a Papp above 1000 ×10⁻⁶ cm/s.

In turn, `Cc1c(CN(C)c2cc(C3CC(O)C3)nc(N)n2)[nH]c2ccccc12` (stereo unspecified) showed a Papp below 1 ×10⁻⁶ cm/s.

In the case of `Cc1ccc(-c2nnc(Nc3ccc(Br)cc3)c3ccccc23)cc1S(=O)(=O)N1CCN(C)CC1`, the Papp was above 1000 ×10⁻⁶ cm/s.

As for `CN(C)CCCN1c2ccc(O)cc2Sc2ccc(Cl)cc21`, the Papp was above 1000 ×10⁻⁶ cm/s.

As for `CCCN(C(=O)c1sc2nc3n(c(=O)c2c1C)CCCC3)c1ccccc1C`, the Papp is above 1000 ×10⁻⁶ cm/s.

`CC1=C(C(=O)NC2CCCC2)C(c2nn(C)cc2Cl)N=C(Nc2nc3ccccc3o2)N1` (stereo unspecified) gave a Papp above 1000 ×10⁻⁶ cm/s.

Consider `COc1ccc(OCc2ccc(-c3nc(C#N)c(NC(C)c4ccccc4)o3)o2)cc1` (stereo unspecified), for which the Papp is 20.9 ×10⁻⁶ cm/s.

In turn, `CC(C)Oc1ccc(CNC(=O)C2CCN(C(=O)N3CCOc4ccc(Cl)cc43)CC2)cc1` came in with a Papp of 451 ×10⁻⁶ cm/s.

On to `Cc1ccc(S(=O)(=O)Nc2cnccc2C(=O)Nc2nc(-c3ccc(-c4ccccc4)cc3)cs2)cc1`, for which the Papp stood at 5.92 ×10⁻⁶ cm/s.

`CC(=O)c1ccc(N2CCN(S(=O)(=O)c3cc4c(cc3Cl)NC(=O)C4)CC2)cc1`: the apparent permeability coefficient (Papp) came to 558 ×10⁻⁶ cm/s.

`Fc1cc(Nc2nc(-c3ccncc3)nc3ccccc23)ccc1-c1cccnc1` came in with a Papp of 5.4 ×10⁻⁶ cm/s.

Regarding `Fc1ccc(-c2csc3ncnc(Sc4nnnn4C4CC4)c23)cc1`, the apparent permeability (Papp) was found to be 834 ×10⁻⁶ cm/s.

In turn, `CCCCOc1ccc(CC(=O)NO)cc1` displayed a Papp of 133 ×10⁻⁶ cm/s.

In turn, `COc1ccccc1Nc1ccnc(N2CCN(C(=O)c3ccc(C)cc3)CC2)n1` came in with a Papp above 1000 ×10⁻⁶ cm/s.

On to `O=C(O)c1ccc(-c2c[nH]c3ncc(-c4ccccc4)cc23)cc1C1CCCC1`, for which the Papp stood at 400 ×10⁻⁶ cm/s.

On to `COc1cccc(-c2csc(NC(=O)c3ccncc3NS(=O)(=O)c3ccc(C)cc3)n2)c1`, for which the Papp was above 1000 ×10⁻⁶ cm/s.

With `O=C(COc1ccccc1)NCC(c1cccs1)S(=O)(=O)c1ccc(Cl)cc1` (stereo unspecified), the Papp is 592 ×10⁻⁶ cm/s.

Take `CC(=O)c1c(C)n(-c2ccccc2)c2ccc(O)cc12`: the Papp is 779 ×10⁻⁶ cm/s.

`CCOC(=O)c1ccc(NC(=O)CSc2nc3c(cc2C#N)N2CCC3CC2)cc1` displayed a Papp of 422 ×10⁻⁶ cm/s.

The compound `CCC(CC)c1cc([C@H]2CN3CC[C@H]2C[C@@H]3CNC(C)=O)nc(-c2ccncc2)n1` registered a Papp of 994 ×10⁻⁶ cm/s.

`COc1ncccc1-c1cc2[nH]ccc2c(C(=O)NCc2c(C)cc(C)[nH]c2=O)n1`: the Papp is 472 ×10⁻⁶ cm/s.

`Oc1ccc(CNc2cccnc2)c2cccnc12` registered a Papp of 371 ×10⁻⁶ cm/s.

In turn, `NC(=O)C1CCN(c2nc(-c3cccc([N+](=O)[O-])c3)cs2)CC1` came in with a Papp of 568 ×10⁻⁶ cm/s.

On to `CC(C)Oc1cccc(-c2csc(N3CCC(C(N)=O)CC3)n2)c1`, for which the Papp is above 1000 ×10⁻⁶ cm/s.

Compound `NC1CCC(Nc2nc(Nc3ccc(C(=O)N4CCCCC4)cc3)c3ncn(-c4cccc(F)c4)c3n2)CC1` (stereo unspecified) had a Papp of 21.8 ×10⁻⁶ cm/s.

As to `CCn1cc(C(=O)N2CCN(c3cccc(Cl)c3)CC2)c2cc(OC)c(OC)cc2c1=O`, the Papp is 833 ×10⁻⁶ cm/s.

As for `Cn1cc(-c2nc(Nc3ccc(F)c(F)c3)c3ccccc3n2)cn1`, the Papp is 315 ×10⁻⁶ cm/s.

Compound `Cc1cc(-c2nnc3n2CCCCC3)c(C)n1-c1ccc(Cl)c(Cl)c1` registered a Papp above 1000 ×10⁻⁶ cm/s.

`COc1cccc(C(=O)Nc2ccc([S+](=O)([O-])Nc3nccs3)cc2)c1O` registered a Papp of 3.5 ×10⁻⁶ cm/s.

Regarding `CC(Cc1ccc(O)cc1)NCC(O)c1cc(O)cc(O)c1` (stereo unspecified), the apparent permeability (Papp) worked out at 1.9 ×10⁻⁶ cm/s.

For `Cc1cc(C)c(C(=O)Nc2cccc([S+](=O)([O-])N3CCCCC3)c2)[nH]1`, the apparent permeability (Papp) worked out at 936 ×10⁻⁶ cm/s.

`CCOc1ccc(/C=C/c2nc3ccccc3n2S(=O)(=O)c2ccc(Br)cc2)cc1` registered a Papp of 926 ×10⁻⁶ cm/s.

In turn, `Cc1ccc(S(=O)(=O)Nc2cnccc2C(=O)Nc2nc(-c3ccc(Cl)cc3)cs2)cc1` gave a Papp of 38.2 ×10⁻⁶ cm/s.

For the compound `CCN(CC)[S+](=O)([O-])c1cc(NC(=O)c2[nH]c(C)c(C(C)=O)c2C)ccc1OC`, the Papp is 645 ×10⁻⁶ cm/s.

In the case of `Cc1ccc2nc(-c3cc(NC(=O)c4ccc5c(c4)OCCO5)ccc3Cl)oc2c1`, the Papp stood at 144 ×10⁻⁶ cm/s.

Consider `Cc1nnc(N2C(=O)c3oc4ccccc4c(=O)c3C2c2ccc(F)cc2)s1` (stereo unspecified), for which the Papp is 314 ×10⁻⁶ cm/s.

In turn, `Cc1ccc(S(=O)(=O)Nc2cnccc2C(=O)Nc2ccc(-c3nn[nH]n3)cc2)cc1` displayed an apparent permeability coefficient (Papp) of 1.4 ×10⁻⁶ cm/s.

On to `COc1cccc(Cn2c(=O)n(-c3cccc(Cl)c3C)c(=O)c3c4c(sc32)CN(C(C)=O)CC4)c1`, for which the Papp is above 1000 ×10⁻⁶ cm/s.

`O=C(NC(c1ccccc1)c1cc(Cl)c2cccnc2c1O)c1cccnc1` (stereo unspecified) returned a Papp of 51.6 ×10⁻⁶ cm/s.

For `O=C1Nc2ccc(Cl)cc2/C1=C\c1cc(Cl)c(O)c(Cl)c1`, the Papp came out at 69.5 ×10⁻⁶ cm/s.

The compound `C#C[C@]1(OC(C)=O)CC[C@H]2[C@@H]3CCC4=C/C(=N/O)CC[C@@H]4[C@H]3CC[C@@]21CC` registered a Papp of 858 ×10⁻⁶ cm/s.

On to `Cc1ccc(C)c(NC2=C(c3ccc(C(F)(F)F)cc3)C(=O)c3ccccc32)c1`, for which the Papp is below 1 ×10⁻⁶ cm/s.

As for `CCN(CCCOc1ccc2c(Nc3cc(CC(=O)Nc4cccc(F)c4)[nH]n3)ncnc2c1)CCOP(=O)(O)O`, the apparent permeability (Papp) is below 1 ×10⁻⁶ cm/s.

Compound `Fc1ccc(Nc2nc(-c3ccncc3F)nc3ccccc23)cc1F` yielded a Papp of 325 ×10⁻⁶ cm/s.

For the compound `CCN(CC)S(=O)(=O)c1ccc(N2CCOCC2)c(NC(=O)c2[nH]c(C)c(C(C)=O)c2C)c1`, the Papp was above 1000 ×10⁻⁶ cm/s.

Take `CCOC(=O)c1nn(-c2ccccc2)c(=O)c2c(N)scc12`: the Papp is above 1000 ×10⁻⁶ cm/s.

Compound `Cn1cc(S(=O)(=O)N2CCCCCC2)cc1C(=O)Nc1ccc(Cl)c(C(F)(F)F)c1` had a Papp of 305 ×10⁻⁶ cm/s.

For `Nc1cc(CN2C(=O)c3ccccc3C2=O)cc(Cl)c1O`, the Papp came out at 352 ×10⁻⁶ cm/s.

Compound `COc1ccc(OC)c(-c2nnc3ccc(-c4ccc(OC)c(O[C@@H]5CCOC5)c4)nn23)c1` had a Papp of 877 ×10⁻⁶ cm/s.

`O=C(CNC(=O)c1cnccn1)NC1CCCc2c1[nH]c1ccc(Cl)cc21` (stereo unspecified): the Papp was above 1000 ×10⁻⁶ cm/s.

`O=C1Nc2ccccc2/C1=C\c1ccc(C(=O)O)cc1`: the Papp worked out at 3.96 ×10⁻⁶ cm/s.

As to `COc1cccc(CNC(=O)c2c(OC)cc(=O)n3c2CCN(C(=O)c2ccc(C)cc2C)CC3)c1`, the Papp stood at 93.9 ×10⁻⁶ cm/s.

As to `NC(=O)C1CCN(c2nc(-c3ccc(Cl)cc3)cs2)CC1`, the Papp was 191 ×10⁻⁶ cm/s.

`Cc1cn(CCN2CCN(c3ccccc3-c3cc(C#N)cc(C(=O)NCCCN4CCCC4)c3)CC2)c2ccccc12` returned a Papp below 1 ×10⁻⁶ cm/s.

`CCN(C(=O)C(NS(=O)(=O)c1ccc(Br)s1)c1ccccc1)c1ccc(C)c(C)c1` (stereo unspecified) gave a Papp of 392 ×10⁻⁶ cm/s.
